Measurements published in PubChem BioAssay AID192 (DTP/NCI, 2004).
Several values for one entry are separate records, joined by “and”; a condition that tells them apart may be missing. Identical values can stand only once. Toxic doses and inconclusive results are not listed. How the source made its calls: active means survival T/C of 150% or more; inactive means T/C below 125% in these data.

Test system: BDF1 mice, B16 melanoma ip, median survival T/C
Experiment: NCI In Vivo Anticancer Drug Screen. Data for tumor model B16 Melanoma (intraperitoneal) in B6D2F1 (BDF1) mice
Conditions: endpoint: median survival time, higher = longer survival
In short: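 Transplantable tumor model; survival or tumor size measured; reported as T/C, treated over vehicle control.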

[1] = dose: 50.0 mg/kg/injection, schedule: Q01DX009 (ip), vehicle: saline
[2] = dose: 100.0 mg/kg/injection, schedule: Q01DX009 (ip), vehicle: saline
[3] = dose: 200.0 mg/kg/injection, schedule: Q01DX009 (ip), vehicle: saline
[4] = dose: 25.0 mg/kg/injection, schedule: Q01DX009 (ip), vehicle: Klucel (hydroxypropylcellulose) (HPC)
[5] = dose: 50.0 mg/kg/injection, schedule: Q01DX009 (ip), vehicle: Klucel (hydroxypropylcellulose) (HPC)
[6] = dose: 100.0 mg/kg/injection, schedule: Q01DX009 (ip), vehicle: Klucel (hydroxypropylcellulose) (HPC)
[7] = dose: 200.0 mg/kg/injection, schedule: Q01DX009 (ip), vehicle: Klucel (hydroxypropylcellulose) (HPC)
[8] = dose: 400.0 mg/kg/injection, schedule: Q01DX009 (ip), vehicle: Klucel (hydroxypropylcellulose) (HPC)
[9] = dose: 12.5 mg/kg/injection, schedule: Q01DX009 (ip), vehicle: saline with Tween-80
[10] = dose: 25.0 mg/kg/injection, schedule: Q01DX009 (ip), vehicle: saline with Tween-80
[11] = dose: 50.0 mg/kg/injection, schedule: Q01DX009 (ip), vehicle: saline with Tween-80
[12] = dose: 100.0 mg/kg/injection, schedule: Q01DX009 (ip), vehicle: saline with Tween-80
[13] = dose: 6.25 mg/kg/injection, schedule: Q01DX009 (ip), vehicle: saline
[14] = dose: 200.0 mg/kg/injection, schedule: Q01DX009 (ip), vehicle: saline with Tween-80
[15] = dose: 50.0 mg/kg/injection, schedule: Q04DX003 (ip), vehicle: Klucel (hydroxypropylcellulose) (HPC)
[16] = dose: 100.0 mg/kg/injection, schedule: Q04DX003 (ip), vehicle: Klucel (hydroxypropylcellulose) (HPC)

Measured: T/C

CC1(C)CC[C@H](C2=CC(=O)c3c(O)ccc(O)c3C2=O)O1
inactive: dose: 1.25 mg/kg/injection, schedule: Q01DX009 (ip), vehicle: Klucel (hydroxypropylcellulose) (HPC) 99 % of control | dose: 2.5 mg/kg/injection, schedule: Q01DX009 (ip), vehicle: Klucel (hydroxypropylcellulose) (HPC) 97 % of control | dose: 5.0 mg/kg/injection, schedule: Q01DX009 (ip), vehicle: Klucel (hydroxypropylcellulose) (HPC) 97 % of control | dose: 10.0 mg/kg/injection, schedule: Q01DX009 (ip), vehicle: Klucel (hydroxypropylcellulose) (HPC) 92 % of control | dose: 20.0 mg/kg/injection, schedule: Q01DX009 (ip), vehicle: Klucel (hydroxypropylcellulose) (HPC) 93 % of control

C/C(=C\c1ccccc1Cl)[N+](=O)[O-]
inactive: dose: 37.5 mg/kg/injection, schedule: Q01DX009 (ip), vehicle: Klucel (hydroxypropylcellulose) (HPC) 96 % of control | dose: 75.0 mg/kg/injection, schedule: Q01DX009 (ip), vehicle: Klucel (hydroxypropylcellulose) (HPC) 96 % of control

Cn1ccccc1=O
inactive: [1] 124 % of control | [2] 120 % of control | [3] 117 % of control

COc1cccc2c1C(=O)c1c(O)c3c(c(O)c1C2=O)C[C@@](O)(C(C)=O)C[C@@H]3OC1CC(N(C)C)C(O)C(C)O1 (stereo partly drawn)
inactive: dose: 0.63 mg/kg/injection, schedule: Q01DX001 (ip), vehicle: water 100 % of control | dose: 1.25 mg/kg/injection, schedule: Q01DX001 (ip), vehicle: water 110 % of control and 112 % of control | dose: 2.5 mg/kg/injection, schedule: Q01DX001 (ip), vehicle: water 104 % of control | dose: 3.46 mg/kg/injection, schedule: Q04DX003 (ip), vehicle: water 98 % of control and 122 % of control | dose: 5.76 mg/kg/injection, schedule: Q04DX003 (ip), vehicle: water 106 % of control and 117 % of control | dose: 7.2 mg/kg/injection, schedule: Q01DX001 (ip), vehicle: water 104 % of control and 116 % of control | dose: 9.6 mg/kg/injection, schedule: Q04DX003 (ip), vehicle: water 102 % of control | dose: 12.0 mg/kg/injection, schedule: Q01DX001 (ip), vehicle: water 106 % of control and 121 % of control

C=C1CCN(c2ccc(F)cc2)C1=O
inactive: dose: 4.0 mg/kg/injection, schedule: Q01DX009 (ip), vehicle: saline + alcohol 104 % of control | dose: 16.0 mg/kg/injection, schedule: Q01DX009 (ip), vehicle: saline + alcohol 100 % of control | dose: 32.0 mg/kg/injection, schedule: Q01DX009 (ip), vehicle: saline + alcohol 112 % of control | dose: 64.0 mg/kg/injection, schedule: Q01DX009 (ip), vehicle: saline + alcohol 110 % of control

COc1cc(C(=O)N2CCOCC2)cc(OC)c1OC
inactive: [4] 110 % of control | [5] 102 % of control | [6] 92 % of control | [7] 97 % of control | [8] 102 % of control

COC(=O)c1ccc(C(=O)OC)cc1
inactive: dose: 0.05 mg/kg/injection, schedule: Q04DX003 (ip), vehicle: water 103 % of control | dose: 0.1 mg/kg/injection, schedule: Q04DX003 (ip), vehicle: water 96 % of control | dose: 0.2 mg/kg/injection, schedule: Q04DX003 (ip), vehicle: water 106 % of control | dose: 0.4 mg/kg/injection, schedule: Q04DX003 (ip), vehicle: water 113 % of control

Nc1ccc(Cl)cc1N
inactive: [9] 104 % of control | [10] 105 % of control | [11] 102 % of control | [12] 99 % of control

CN=C(N)N/N=C(\C)c1ccc2oc3ccc(/C(C)=N/NC(N)=NC)cc3c2c1
inactive: [9] 106 % of control | [10] 113 % of control | [11] 102 % of control

CC(=O)CC(=O)NCc1ccncc1
inactive: [2] 118 % of control | [3] 112 % of control | dose: 400.0 mg/kg/injection, schedule: Q01DX009 (ip), vehicle: saline 116 % of control

Cc1cccc(NC(=O)Nc2ccccc2Cl)n1
inactive: [5] 90 % of control | [6] 94 % of control | [7] 94 % of control

CC(=O)[C@H]1CC[C@H]2[C@@H]3C[C@H](C)C4=CC(=O)CC[C@]4(C)[C@H]3C(=O)C[C@]12C
inactive: [6] 107 % of control | [7] 92 % of control | [8] 94 % of control

CN(C)CCCN1Cc2ccccc2Cc2ccccc21
inactive: [13] 105 % of control | dose: 12.5 mg/kg/injection, schedule: Q01DX009 (ip), vehicle: saline 103 % of control | dose: 25.0 mg/kg/injection, schedule: Q01DX009 (ip), vehicle: saline 111 % of control | [1] 101 % of control | [2] 107 % of control

CCCCOCN(COCCCC)C(C)Cc1ccccc1 (stereo not drawn)
inactive: [9] 95 % of control and 100 % of control | [10] 98 % of control and 104 % of control | [11] 99 % of control and 105 % of control | [12] 106 % of control and 110 % of control | [14] 90 % of control and 100 % of control

CC1OC2COC(C)OC2C(C(O)COC(c2ccccc2)(c2ccccc2)c2ccccc2)O1 (stereo not drawn)
inactive: dose: 1.56 mg/kg/injection, schedule: Q01DX009 (ip), vehicle: Klucel (hydroxypropylcellulose) (HPC) 89 % of control | dose: 3.12 mg/kg/injection, schedule: Q01DX009 (ip), vehicle: Klucel (hydroxypropylcellulose) (HPC) 89 % of control | dose: 6.25 mg/kg/injection, schedule: Q01DX009 (ip), vehicle: Klucel (hydroxypropylcellulose) (HPC) 88 % of control | [15] 92 % of control | [16] 97 % of control | [7] 109 % of control

O=C(O)c1cccc2c(=O)c3ccccc3sc12
inactive: [6] 100 % of control | [7] 100 % of control | [8] 93 % of control

CCCCn1c(O)c(C=N)c(=O)n(CCCC)c1=O
inactive: dose: 3.12 mg/kg/injection, schedule: Q01DX009 (ip), vehicle: saline with Tween-80 109 % of control | dose: 6.25 mg/kg/injection, schedule: Q01DX009 (ip), vehicle: saline with Tween-80 97 % of control

O=C(Nc1nncs1)c1ccncc1
inactive: [9] 100 % of control | [10] 101 % of control | [11] 109 % of control | [12] 113 % of control | [14] 109 % of control

COc1cc([N+](=O)[O-])c2ncccc2c1
inactive: [6] 115 % of control | [7] 110 % of control

Cc1cccc(C)c1NC(=O)Nc1cccc2ccccc12
inactive: dose: 100.0 mg/kg/injection, schedule: Q01DX009 (ip), vehicle: gum acacia 117 % of control | dose: 200.0 mg/kg/injection, schedule: Q01DX009 (ip), vehicle: gum acacia 109 % of control | dose: 400.0 mg/kg/injection, schedule: Q01DX009 (ip), vehicle: gum acacia 100 % of control

COc1cccc2c1C(=O)c1c(O)c3c(c(O)c1C2=O)C[C@@](O)(/C(CO)=N/NC(=O)c1ccc(Cl)c(Cl)c1)C[C@@H]3OC1CC(NC(=S)Nc2ccc(F)cc2)C(O)C(C)O1 (stereo partly drawn)
inactive: dose: 0.4 mg/kg/injection, schedule: Q01DX009 (ip), vehicle: water 101 % of control | dose: 0.8 mg/kg/injection, schedule: Q01DX009 (ip), vehicle: water 112 % of control | dose: 1.6 mg/kg/injection, schedule: Q01DX009 (ip), vehicle: water 111 % of control | dose: 3.2 mg/kg/injection, schedule: Q01DX009 (ip), vehicle: water 106 % of control

O=C1OCC2C1Cc1cc(O)c(O)cc1C2c1ccc(O)c(O)c1 (stereo not drawn)
inactive: [6] 112 % of control | [7] 94 % of control | [8] 105 % of control

CCOC(=O)C(=Cc1ccccc1Cl)C(=O)OCC
inactive: [15] 99 % of control | [16] 107 % of control | dose: 200.0 mg/kg/injection, schedule: Q04DX003 (ip), vehicle: Klucel (hydroxypropylcellulose) (HPC) 95 % of control

Nc1ccccc1SC1CC(=O)N(c2ccc(I)cc2)C1=O (stereo not drawn)
inactive: [9] 100 % of control | [4] 108 % of control | [5] 97 % of control | [11] 88 % of control | [6] 88 % of control and 100 % of control

NC(N)=Nc1ccc(C(=O)Oc2ccc([N+](=O)[O-])cc2CN2CCCCC2)cc1
inactive: dose: 3.13 mg/kg/injection, schedule: Q01DX009 (ip), vehicle: saline 100 % of control | [13] 100 % of control

OC1CC2CCC(C1)N2CCCN1c2ccccc2Sc2ccc(Cl)cc21 (stereo not drawn)
inactive: dose: 25.0 mg/kg/injection, schedule: Q04DX003 (ip), vehicle: saline 97 % of control | dose: 50.0 mg/kg/injection, schedule: Q04DX003 (ip), vehicle: saline 90 % of control | dose: 100.0 mg/kg/injection, schedule: Q04DX003 (ip), vehicle: saline 93 % of control | dose: 200.0 mg/kg/injection, schedule: Q04DX003 (ip), vehicle: saline 88 % of control

CC1(C)N=C(N)N=C(N)N1c1cccc(OCCOc2ccc([N+](=O)[O-])cc2)c1
inactive: [4] 101 % of control | [5] 102 % of control | [6] 100 % of control | [7] 102 % of control
